Assay results taken from patent US8962558B2, “Methods for reducing GnRH-positive tumor cell proliferation using the GnRH antagonist IN3” (priority 1997, dated 2015).
Square brackets hold non-standard residues; d marks the D form. Peptide text beside a SMILES is read from it. * marks the point of attachment. Tyr(3-I) = N[C@@H](Cc1ccc(O)c(I)c1)C(=O)O; pGlu = O=C1CC[C@@H](C(=O)O)N1; azaGly = NNC(=O)O; tBu = CC(C)(C)*

What was measured:
[1] = tested on: ovarian carcinoma cell lines; conditions: 10^−5 M, day 6; cited from earlier work
[2] = tested on: malignant gliomas U-87MG and U-373MG; test: In vivo study with tumor-implanted nude mice (Example 4); conditions: daily dosages
Procedure: An effect of the treatment of tumor-implanted nude mice (Pinski et al., supra) each with one of the GnRH agonists Buserelin, Triptorelin, Goserelin, and Leuprorelin and each with one of the GnRH antagonists Cetrorelix® (SB-75), Antarelix®, Antide®, and Ramorelix® on the growth of malignant gliomas U-87MG and U-373MG was carried out using daily dosages and controls in nude mice using analysis techniques described for the determination of the efficacy of similar peptides in Pinski et al., supra.

[3] = tested on: human glioblastoma cell lines U-87MG or U-373MG, Kaposi sarcoma cell lines KSY-1 or KS-SLK, malignant melanoma cell line MV3 or BLM, medulloblastoma cell line …; test: Proliferation assay on cell cultures (Example 3); format: cell-based; conditions: cell lines of Example 3 treated with the substance
Procedure: A human cell line, such as the well known human glioblastoma cell lines U-87MG or U-373MG (Pinski et al., supra), or a human cell line such as the well known Kaposi sarcoma cell lines KSY-1 or KS-SLK (Parkash et al., 1996, New England Journal of Medicine, 335, 17, 1261-1269), or a human cell line such as the well known human malignant melanoma cell line MV3 or BLM (Goldbrunner, R. H., et al., 1996, Anticancer Research 16 (6B), 3679-87), or a human medulloblastoma cell line such as the well known cell line Daoy or D283 MED (Stockhammer et al., 1995, J. Neurosurgery, 83, 672-681), or human meningeoma cell cultures (Boyle-Wash, E., et al., 1995, Journal of Endocrinology, 145, 155-161), are cultured as previously described for the above-mentioned cell lines and then treated with a concentration of the GnRH agonist Triptorelin®, GnRH antagonist SB-75 (Cetrorelix®) or GnRH antagonist Ramorelix®. […]
In another embodiment, the above-mentioned cell lines are treated as described by Emons, G., et al., 1993, supra, and Irmer, G., 1995, supra, with a concentration of the GnRH peptide antagonist Ac-D-Nal(2)-D-4-ClPhe-D-Pal-Ser-1-MePal-D-IsopropylLys-Leu-IsopropylLys-Pro-D-AlaNH2 (also known as Ant 135-25; the Mepal portion is known as 1-Methyl-3-[3′-pyridyl]-alanine), Teverelix (also known as Antarelix®), Cetrorelix (also known as Cetrotide®), Abarelix (also known as Plenaxis®), D-63153 (also known as Ozarelix®), acyline, azaline B, antide (also known as Iturelix®), Degarelix (FE200486), Ganirelix, Nal-Glu, Orntide (also known as Ornirelix®), Elagolix, or with antagonist peptidomimetic ((2S)-2-[5-[2-(2-azabicyclo[2,2,2]oct-2-yl)-1,1-dimethyl-2-oxoethyl]-2-(3,5-dimethylphenyl)-1H-indol-3-yl]-N-(2-pyridin-4-ylethyl-)propan-1-amine (also known as “IN3”).
In another embodiment, the cell lines used above were each additionally treated with a second GnRH antagonist, namely one of the GnRH antagonists Cetrorelix®, Ant 135-25, IN3, degarelix, Antarelix®, Antide®, and Ramorelix® or alternatively with one of the GnRH antagonists that have been disclosed in U.S. Pat. Nos. 6,939,88, 6,200,957, 5,296,468, 4,851,385, 7,361,633, 7,288,517, WO/2009/106597 or PCT/EP2009/052326, U.S. Pat. Nos. 5,480,969, 5,198,533, or UK Patent GB 2 246782 B, wherein these additional treatment procedures were carried out in a manner similar to those reported in Emons et al., supra, using SB 75 (Cetrorelix®). […]

[4] = biological target: T1, LHRH receptors in BLM melanoma cells (Homo sapiens, UniProt P30968); test: 125I-LHRH-A binding to BLM cell membranes
T1 construct: endogenous in cells; host or cells: BLM human melanoma cells (membranes)
T1 sequence (P30968 1-328): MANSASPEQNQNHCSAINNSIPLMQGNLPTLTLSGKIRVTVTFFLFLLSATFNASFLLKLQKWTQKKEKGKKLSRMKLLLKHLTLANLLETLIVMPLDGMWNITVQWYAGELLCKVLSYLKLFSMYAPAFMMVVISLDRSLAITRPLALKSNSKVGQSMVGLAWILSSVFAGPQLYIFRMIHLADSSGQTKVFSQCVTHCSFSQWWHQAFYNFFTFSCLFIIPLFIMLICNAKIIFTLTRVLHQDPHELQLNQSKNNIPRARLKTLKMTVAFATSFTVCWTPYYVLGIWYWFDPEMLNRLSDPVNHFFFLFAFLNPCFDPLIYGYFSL
Procedure: (§1) GnRH receptors in melanoma cells have been analyzed also in terms of binding parameters.
(§2) Binding characteristics were evaluated from displacement curves as described in Materials and Methods.

[5] = biological target: T2, LHRH receptors in Me15392 melanoma cells (Homo sapiens, UniProt P30968); test: 125I-LHRH-A binding to Me15392 cell membranes
T2 construct: endogenous in cells; host or cells: Me15392 human melanoma cells (membranes)
T2 sequence (P30968 1-328): T1 sequence (P30968 1-328)
Procedure: as §1, §2

[6] = biological target: T3, LHRH receptors in rat pituitaries (Rattus norvegicus, UniProt P30969); test: 125I-LHRH-A binding to rat pituitaries (control)
T3 construct: from tissue; host or cells: rat pituitary
T3 sequence (P30969 1-327): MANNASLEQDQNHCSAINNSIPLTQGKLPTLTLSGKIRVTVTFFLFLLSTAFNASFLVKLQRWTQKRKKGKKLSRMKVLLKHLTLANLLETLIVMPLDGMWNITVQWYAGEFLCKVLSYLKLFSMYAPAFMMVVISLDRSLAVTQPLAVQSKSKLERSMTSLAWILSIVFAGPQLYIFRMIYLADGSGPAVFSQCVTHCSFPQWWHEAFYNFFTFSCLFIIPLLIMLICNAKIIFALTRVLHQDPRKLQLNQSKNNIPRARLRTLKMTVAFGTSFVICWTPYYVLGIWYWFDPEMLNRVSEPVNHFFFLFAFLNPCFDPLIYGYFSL
Procedure: as §1, §2

[7] = tested on: small cell lung carcinoma cell lines NCI-H1688, NCI-H1417, NCI-H1672, NCI-H1836, DMS-79, DM-553, DMS-114, SW-1271, NCI-H2227, NCI-HI1963, SHP-77 and H-69 AR; test: Proliferation assay on small cell lung carcinoma cell lines (Example 3); format: cell-based, human; conditions: small cell lung carcinoma cell lines treated with the substance
Procedure: In another embodiment, the small cell lung carcinoma cell lines NCI-H1688, NCI-H1417, NCI-H1672, NCI-H1836, DMS-79, DM-553, DMS-114, SW-1271, NCI-H2227, NCI-HI1963 and SHP-77 in addition to the multidrug-resistant small cell lung carcinoma cell line H-69 AR, are cultured as described above and then treated as described by Emons, G., et al., 1993, supra, and Irmer, G., 1995, supra, with various concentrations of the GnRH agonists (D-Lys6)-GnRH, Lutrelin, Histrelin, Nafarelin, Azagly-Nafarelin, Deslorelin, Cystorelin, Decapeptyl, Gonadorelin, GnRH, D-Lys(6)-GnRH II, Lamprey GnRH II, (D-Lys6)-Lamprey GnRH, (D-Lys6)-Lamprey GnRH II and Lamprey GnRH III.
In another embodiment, the small cell lung carcinoma cell lines NCI-H1688, NCI-H1417, NCI-H1672, NCI-H1836, DMS-79, DM-553, DMS-114, SW-1271, NCI-H2227, NCI-HI1963 and SHP-77 in addition to the multidrug-resistant small cell lung carcinoma cell line H-69 AR, are cultured as described above for the above-mentioned cell lines, and then treated as described by Emons, G., et al., 1993, supra, and Irmer, G., 1995, supra, with a concentration of the GnRH antagonist Cetrorelix (also known as Cetrotide®) or with a GnRH peptide antagonist Ac-D-Nal(2)-D-4-ClPhe-D-Pal-Ser-1-MePal-D-IsopropylLys-Leu-IsopropylLys-Pro-D-AlaNH2 wherein Mepal is 1-Methyl-3-[3′-pyridyl]-alanine or Ant 135-25 (also known as Ac-D-Nal(2)-D-4-Cl-Phe-D-Pal-Ser-1-MePal-D-IsopropylLys-Leu-IsopropylLys-Pro-D-AlaNH2), Teverelix (also known as Antarelix®), Cetrorelix (also known as Cetrotide®), Abarelix (also known as Plenaxis®), D-63153 (also known as Ozarelix®), acyline, azaline B, antide (also known as Iturelix®), Degarelix (FE200486), Ganirelix, Nal-Glu, Orntide (also known as Ornirelix®) or with antagonist peptidomimetic ((2S)-2-[5-[2-(2-azabicyclo[2,2,2]oct-2-yl)-1,1-dimethyl-2-oxoethyl]-2-(3,5-dimethylphenyl)-1H-indol-3-yl]-N-(2-pyridin-4-ylethyl-)propan-1-amine (also known as “IN3”).

BLM human melanoma cells = test: Proliferation of BLM human melanoma cells (Example 20); format: cell-based; conditions: 5×10^−5M
Excerpt: The effects of the GnRH agonist (D-Lys6)-GnRH, Gossypol, the combination of D-Lys6-GnRH and racemic Gossypol, and a conjugate of (D-Lys6)-GnRH, and racemic Gossypol alone on the proliferation of BLM human melanoma cells are depicted in FIG. 20 (A), (B) and (C), respectively. Results are expressed as mean cell number per plate±SE. *, p<0.05 vs. control (C).

Molecule	inhibition of proliferation [1] [%]	growth of malignant gliomas [2]	anti-proliferative effects in tumor cells [3]	^125I-LHRH-A binding Capacity [4]	^125I-LHRH-A binding Capacity [5]	^125I-LHRH-A binding Capacity [6]	anti-proliferative effects in tumor cells [7]	inhibition of cellular proliferation versus controls (BLM human melanoma cells) [%]
CC(C)C[C@H](NC(=O)[C@@H](Cc1c[nH]c2ccccc12)NC(=O)[C@H](Cc1ccc(O)cc1)NC(=O)[C@H](CO)NC(=O)[C@H](Cc1c[nH]c2ccccc12)NC(=O)[C@H](Cc1c[nH]cn1)NC(=O)[C@@H]1CCC(=O)N1)C(=O)N[C@@H](CCCNC(=N)N)C(=O)N1CCC[C@H]1C(=O)NCC(N)=O [Triptorelin®]	40	Significant growth-inhibiting effects	Significant anti-proliferative effects	–	–	–	–	–
CC(C)C[C@H](NC(=O)[C@@H](COC(C)(C)C)NC(=O)[C@H](Cc1ccc(O)c(I)c1)NC(=O)[C@H](CO)NC(=O)[C@H](Cc1c[nH]c2ccccc12)NC(=O)[C@H](Cc1c[nH]cn1)NC(=O)[C@@H]1CCC(=O)N1)C(=O)N[C@@H](CCCNC(=N)N)C(=O)N1CCC[C@H]1C(=O)NNC(N)=O [^125I-LHRH-A] ([pGlu]HWS[Tyr(3-I)][dS](tBu)LRP[azaGly]-NH2; C-terminus assumed)	–	–	–	150-200 fmoles/mg protein	200-250 fmoles/mg protein	70-100 fmoles/mg protein	–	–
(D-Lys6)-GnRH	–	–	Significant anti-proliferative effects	–	–	–	Significant anti-proliferative effects	39
